Laboratory results from patent publication US4254109A, “1H-Benz[de]isoquinoline-2(3H)-acetic acid derivatives” (Ayerst, McKenna & Harrison Inc., priority 1979, dated 1981).

What was measured:
aldose reductase [1] = biological target: T1, aldose reductase (Bos taurus, UniProt P16116); assay: in vitro aldose reductase inhibition (modified Hayman and Kinoshita procedure; enzyme from bovine lens); type: biochemical; details: read-out: Percent Inhibition at Different Molar Concentrations (in vitro); for inhibition at 10 µM: 10^-5 molar; for inhibition at 1 µM: 10^-6 molar; for inhibition at 0.1 µM: 10^-7 molar
T1 construct: preparation of the enzyme from bovine lens; from tissue; host or cells: bovine lens
Procedure: In the present case the procedure of Hayman and Kinoshita is modified in that the final chromatography step is omitted in the preparation of the enzyme from bovine lens.
The following results were obtained when the compounds of this invention were evaluated in the above in vitro test (the results for 1,3-dioxo-1H-benz[de]isoquinoline-2(3H)-acetic acid, see U.S. Pat. No. 3,821,383 cited hereinbefore, also is included for comparative purposes): […]

aldose reductase [2] = details: cited from earlier work
insulin secretion = details: cited from earlier work
glucagon = details: cited from earlier work

inhibition at 10 µM (aldose reductase [1])	inhibition at 1 µM (aldose reductase [1])	inhibition at 0.1 µM (aldose reductase [1])	Compound	inhibitor of aldose reductase (aldose reductase [2])	insulin secretion (insulin secretion)	secretion of excessive amounts of glucagon (glucagon)
86%	42%	9%	O=C(O)CN1C(=O)c2cccc3c(Cl)ccc(c23)C1=O [Example 2, 6-Chloro-1,3-dioxo-1H-benz[de]isoquinoline-2(3H)-acetic acid]	–	–	–
85%	65%	22%	O=C(O)CN1C(=O)c2cccc3c(C(=O)c4ccccc4)ccc(c23)C1=O [Example 1, 6-Benzoyl-1,3-dioxo-1H-benz[de]isoquinoline-2(3H)-acetic acid]	–	–	–
92%	71%	22%	O=C(O)CN1C(=O)c2cccc3c(Sc4ccccc4)ccc(c23)C1=O [Example 3, 1,3-Dioxo-6-(phenylthio)-1H-benz[de]isoquinoline-2(3H)-acetic acid]	–	–	–
60%	33%	26%	CCCCCCCCCCSc1ccc2c3c(cccc13)C(=O)N(CC(=O)O)C2=O [Example 5, 1,3-Dioxo-6-(decylthio)-1H-benz[de]isoquinoline-2(3H)-acetic acid]	–	–	–
74%	32%	5%	O=C(O)CN1C(=O)c2cccc3cccc(c23)C1=O [1,3-Dioxo-1H-benz[de]isoquinoline-2(3H)-acetic acid, reference compound]	effective inhibitor of aldose reductase	stimulates insulin secretion	prevents or decreases the secretion of excessive amounts of glucagon
91%	61%	17%	O=C(O)CN1C(=O)c2cccc3c(Sc4ccccc4C(=O)O)ccc(c23)C1=O [Example 4, 1,3-Dioxo-6-[(2-carboxyphenyl)thio]-1H-benz[de]isoquinoline-2(3H)-acetic acid]	–	–	–
